According to patent US8710038B2, “Pyrazole kinase modulators and methods of use” (Exelixis, Inc., priority 2004, dated 2014):

Assays:
[1] = target: T1, EphB4 (Homo sapiens, UniProt P54760); assay: EphB4 kinase inhibition assay; format: biochemical
T1 sequence (P54760 16-987): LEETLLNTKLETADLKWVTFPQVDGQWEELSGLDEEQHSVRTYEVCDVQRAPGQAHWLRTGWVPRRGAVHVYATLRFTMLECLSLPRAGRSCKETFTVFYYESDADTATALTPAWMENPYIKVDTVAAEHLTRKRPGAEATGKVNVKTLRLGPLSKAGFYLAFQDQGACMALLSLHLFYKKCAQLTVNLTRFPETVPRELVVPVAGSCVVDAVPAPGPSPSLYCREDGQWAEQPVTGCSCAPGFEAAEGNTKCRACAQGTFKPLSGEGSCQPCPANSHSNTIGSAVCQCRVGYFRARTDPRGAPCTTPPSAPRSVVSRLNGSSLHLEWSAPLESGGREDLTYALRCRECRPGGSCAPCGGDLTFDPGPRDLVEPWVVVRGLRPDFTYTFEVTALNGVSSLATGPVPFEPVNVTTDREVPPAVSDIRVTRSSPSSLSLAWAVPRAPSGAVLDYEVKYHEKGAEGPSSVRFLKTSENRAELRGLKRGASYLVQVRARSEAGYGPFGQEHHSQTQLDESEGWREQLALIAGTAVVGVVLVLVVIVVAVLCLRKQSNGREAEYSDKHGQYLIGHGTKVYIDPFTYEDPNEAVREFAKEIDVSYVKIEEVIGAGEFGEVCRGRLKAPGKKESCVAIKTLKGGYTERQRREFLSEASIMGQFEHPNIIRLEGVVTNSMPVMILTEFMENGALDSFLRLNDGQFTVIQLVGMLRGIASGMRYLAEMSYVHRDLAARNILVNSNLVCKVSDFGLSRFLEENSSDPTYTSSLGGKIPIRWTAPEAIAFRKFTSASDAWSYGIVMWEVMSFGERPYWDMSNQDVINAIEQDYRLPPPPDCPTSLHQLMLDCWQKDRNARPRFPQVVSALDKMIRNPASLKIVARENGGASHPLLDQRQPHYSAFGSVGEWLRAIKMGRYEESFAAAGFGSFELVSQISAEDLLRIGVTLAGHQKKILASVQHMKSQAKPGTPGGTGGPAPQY
Description: (§1) Kinase activity and compound inhibition are investigated using one or more of the three assay formats described below. The ATP concentrations for each assay are selected to be close to the Michaelis-Menten constant (KM) for each individual kinase. Dose-response experiments are performed at 10 different inhibitor concentrations in a 384-well plate format. The data are fitted to four-parameter equation (2) below; where Y is the observed signal, X is the inhibitor concentration, Min is the background signal in the absence of enzyme (0% enzyme activity), Max is the signal in the absence of inhibitor (100% enzyme activity), IC50 is the inhibitor concentration at 50% enzyme inhibition and H represents the empirical Hill's slope to measure the cooperativity. Typically H is close to unity. Y=Min+(Max−Min)/(1+(X/IC50)^H) Equation (2) ^33P Phosphoryl Transfer Assay: […]
(§2) Greiner 384-well white, clear bottom, high binding plates are coated with 2 μg/well of protein or peptide substrate in a 50 μL volume overnight at ambient temperature. The coating buffer typically contains 40 μg/mL substrate, 22.5 mM Na2CO3, 27.5 mM NaHCO3, 150 mM NaCl and 3 mM NaN3. The coating solution is aspirated and the plates are washed once with 50 μL of assay buffer and padded dry. Subsequently compounds and enzymes are mixed with γ^33P-ATP (3.3 μCi/nmol) in a total volume of 20 uL in suitable assay buffers. The mixture is incubated at ambient temperature for 1.5-2.5 hrs and terminated by aspiration using a Molecular Devices EMBLA 96-head plate washer. The plates are subsequently washed 6-12 times with PBST or TBS buffer. Scintillation fluid (50 μl/well) is then added, the plates are sealed and activity assessed by liquid scintillation spectrometry using a Perkin Elmer MicroBeta TriLux.
(§3) In the LCCA assays, kinase activity is measured as the percent ATP consumed following the kinase reaction using luciferase-luciferin-coupled chemiluminescence. Greiner 384-well white, clear bottom, medium-binding plates are used for LCCA. Briefly, the kinase reaction is initiated by mixing compounds, ATP and kinase in a 20 uL volume. The mixture is incubated at ambient temperature for 2-4 hrs. At the end of the kinase reaction, a 20 uL luciferase-luciferin mix is added and the chemiluminescent signal is read using a Wallac Victor^2 reader. The luciferase-luciferin mix consists of 50 mM HEPES, pH 7.8, 8.5 ug/mL oxalic acid (pH 7.8), 5 (or 50) mM DTT, 0.4% Triton X-100, 0.25 mg/mL coenzyme A, 63 uM AMP, 28 ug/mL luciferin and 40,000 units of light/mL luciferase. For the LCCA assays, total ATP consumption has been standardized to 25-45% and the IC50 values correlates well with those determined by radiometric assays.
(§4) AlphaScreen technology is a proximity assay which utilizes the increase in fluorescent signal occurring when donor and acceptor beads are close in proximity. Biotinylated poly(Glu,Tyr) 4:1 is used as the kinase substrate, in conjunction with streptavidin-coated donor beads and anti-phosphortyrosine antibody PY100-coated acceptor beads. Upon phosphorylation, the peptide substrate can bind to both donor and acceptor beads giving rise to an increase in fluorescence. Compounds, ATP, biotinylated poly(Glu, Tyr) and kinases are mixed in a volume of 20 uL for 1 hr at ambient temperature using Greiner 384-well white clear bottom medium binding plates. Following incubation a 10 uL solution containing […] AlphaScreen beads, 75 mM Hepes, pH 7.4, 300 mM NaCl, 120 mM EDTA, 0.3% BSA and 0.03% Tween-20 is added to each well. After 2-16 hr incubation of the beads, plates are read in a Perkin Elmer AlphaQuest reader. The IC50 values correlates well with those of radiometric assays.

[2] = target: T2, flt-3 (Homo sapiens, UniProt P36888); assay: flt-3 Luciferase-Coupled Chemiluminescent Kinase assay (LCCA); format: biochemical
T2 construct: baculovirus expressed human Flt-3 kinase domain R571-S993
T2 sequence (P36888 571-993): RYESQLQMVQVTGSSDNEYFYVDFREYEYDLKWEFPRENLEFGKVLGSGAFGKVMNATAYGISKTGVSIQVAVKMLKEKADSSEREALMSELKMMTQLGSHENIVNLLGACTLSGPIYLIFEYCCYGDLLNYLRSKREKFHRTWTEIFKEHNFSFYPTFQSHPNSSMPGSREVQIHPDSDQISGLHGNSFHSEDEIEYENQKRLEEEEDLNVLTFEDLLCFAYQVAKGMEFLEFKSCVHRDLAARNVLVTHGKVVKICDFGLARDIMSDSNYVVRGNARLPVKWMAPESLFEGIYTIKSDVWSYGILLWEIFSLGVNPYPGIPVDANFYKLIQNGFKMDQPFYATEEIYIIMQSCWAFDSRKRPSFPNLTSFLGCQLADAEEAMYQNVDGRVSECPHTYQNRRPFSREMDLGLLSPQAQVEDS
Description: as §3
Flt-3 biochemical activity was assessed using a Luciferase-Coupled Chemiluminescent Kinase assay (LCCA) format. Kinase activity was measured as the percent ATP remaining following the kinase reaction. Remaining ATP was detected by luciferase-luciferin-coupled chemiluminescence. Specifically, the reaction was initiated by mixing test compounds, 5 μM ATP, 3 μM poly-EY and 5 nM Flt-3 (baculovirus expressed human Flt-3 kinase domain R571-S993) in a 20 uL assay buffer (20 mM Tris-HCL pH7.5, 10 mM MgCl2, 0.01% Triton X-100, 1 mM DTT, 2 mM MnCl2). The mixture is incubated at ambient temperature for 3 hours after which 20 uL luciferase-luciferin mix is added and the chemiluminescent signal read using a Wallac Victor^2 reader. The luciferase-luciferin mix consists of 50 mM HEPES, pH 7.8, 8.5 ug/mL oxalic acid (pH 7.8), 5 (or 50) mM DTT, 0.4% Triton X-100, 0.25 mg/mL coenzyme A, 63 uM AMP, 28 ug/mL luciferin and 40,000 units of light/mL luciferase.

[3] = target: c-Kit (Homo sapiens, UniProt P10721); assay: c-Kit biochemical assay (AlphaScreen)
c-Kit, sequence (P10721 26-976): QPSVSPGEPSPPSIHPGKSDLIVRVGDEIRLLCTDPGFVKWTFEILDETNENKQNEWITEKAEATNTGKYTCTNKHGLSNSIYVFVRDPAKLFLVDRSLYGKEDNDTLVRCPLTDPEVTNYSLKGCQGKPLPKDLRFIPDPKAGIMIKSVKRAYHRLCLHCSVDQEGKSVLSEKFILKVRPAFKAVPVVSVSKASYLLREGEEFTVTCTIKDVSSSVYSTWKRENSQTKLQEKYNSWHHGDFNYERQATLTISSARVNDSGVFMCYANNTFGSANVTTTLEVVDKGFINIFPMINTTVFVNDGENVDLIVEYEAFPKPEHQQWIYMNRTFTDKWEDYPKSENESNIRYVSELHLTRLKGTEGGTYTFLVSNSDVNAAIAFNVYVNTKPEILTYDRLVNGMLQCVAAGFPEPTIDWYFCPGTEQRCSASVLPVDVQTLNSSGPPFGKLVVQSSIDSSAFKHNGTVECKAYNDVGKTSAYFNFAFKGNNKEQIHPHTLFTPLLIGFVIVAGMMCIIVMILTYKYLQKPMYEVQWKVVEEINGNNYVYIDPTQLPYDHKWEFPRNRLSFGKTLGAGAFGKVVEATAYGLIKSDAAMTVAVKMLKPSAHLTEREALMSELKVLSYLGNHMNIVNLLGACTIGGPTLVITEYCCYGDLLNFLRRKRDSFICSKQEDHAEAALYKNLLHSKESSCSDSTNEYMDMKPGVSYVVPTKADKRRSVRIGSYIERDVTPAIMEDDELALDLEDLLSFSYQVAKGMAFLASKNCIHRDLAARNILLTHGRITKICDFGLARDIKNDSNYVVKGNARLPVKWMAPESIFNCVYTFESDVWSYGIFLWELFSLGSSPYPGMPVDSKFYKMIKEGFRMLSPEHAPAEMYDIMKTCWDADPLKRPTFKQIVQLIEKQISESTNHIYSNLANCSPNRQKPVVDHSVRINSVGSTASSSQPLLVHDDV
Source text: as §4
c-Kit biochemical activity was assessed using AlphaScreen™ (Perkin Elmer) technology, described above. Test compounds, ATP, biotinylated poly(Glu, Tyr) and c-Kit kinase were combined in a volume of 20 μL in a 384-well white, medium binding microtiter plate (Greiner). Reaction mixtures were incubated for 1 hr at ambient temperature. Reactions were quenched by addition of 10 uL of […] AlphaScreen bead suspension containing 75 mM Hepes, pH 7.4, 300 mM NaCl, 120 mM EDTA, 0.3% BSA and 0.03% Tween-20. After 16 hr incubation at ambient temperature plates were read using an AlphaQuest reader (Perkin Elmer).

[4] = target: EGFR (Homo sapiens, UniProt P00533); assay: EGFR kinase inhibition assay; format: biochemical
EGFR, sequence (P00533 25-1210, species assumed): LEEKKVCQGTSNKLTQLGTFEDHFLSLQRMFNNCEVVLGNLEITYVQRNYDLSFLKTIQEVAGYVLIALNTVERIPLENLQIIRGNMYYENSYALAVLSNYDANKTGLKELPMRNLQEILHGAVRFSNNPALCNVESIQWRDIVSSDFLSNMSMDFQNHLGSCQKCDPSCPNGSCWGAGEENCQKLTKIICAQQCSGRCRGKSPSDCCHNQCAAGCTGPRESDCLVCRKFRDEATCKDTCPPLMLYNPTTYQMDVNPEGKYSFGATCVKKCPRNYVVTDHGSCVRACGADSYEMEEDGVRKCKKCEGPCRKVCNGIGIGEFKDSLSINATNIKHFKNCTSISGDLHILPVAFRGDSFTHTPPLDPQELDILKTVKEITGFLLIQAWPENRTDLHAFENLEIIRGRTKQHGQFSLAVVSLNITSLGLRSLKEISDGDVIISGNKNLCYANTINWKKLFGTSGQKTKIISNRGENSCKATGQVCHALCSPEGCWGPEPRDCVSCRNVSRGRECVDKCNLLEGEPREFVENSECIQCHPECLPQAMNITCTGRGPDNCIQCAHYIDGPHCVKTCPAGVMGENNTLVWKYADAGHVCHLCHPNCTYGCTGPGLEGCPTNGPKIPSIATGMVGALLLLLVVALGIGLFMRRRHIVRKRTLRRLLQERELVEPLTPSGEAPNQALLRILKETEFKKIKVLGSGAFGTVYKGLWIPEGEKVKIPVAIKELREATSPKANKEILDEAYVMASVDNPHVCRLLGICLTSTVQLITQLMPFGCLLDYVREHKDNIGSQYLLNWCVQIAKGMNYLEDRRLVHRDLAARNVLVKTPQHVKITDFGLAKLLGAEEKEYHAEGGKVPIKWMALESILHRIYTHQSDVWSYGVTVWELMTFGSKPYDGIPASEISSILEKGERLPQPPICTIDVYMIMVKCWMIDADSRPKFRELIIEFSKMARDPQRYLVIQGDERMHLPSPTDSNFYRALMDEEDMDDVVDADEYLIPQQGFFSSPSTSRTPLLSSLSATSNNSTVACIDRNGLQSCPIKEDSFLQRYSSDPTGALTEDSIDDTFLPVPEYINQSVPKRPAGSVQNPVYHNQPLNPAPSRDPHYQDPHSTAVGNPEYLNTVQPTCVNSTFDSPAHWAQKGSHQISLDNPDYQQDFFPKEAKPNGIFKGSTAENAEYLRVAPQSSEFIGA
Description: as §1, §2, §3, §4

Q: What does the source list for CN1CCN(c2ccc3[nH]c(-c4cc(-c5ccc(NC(=O)Nc6ccc(Oc7ccccc7)cc6)cc5)[nH]n4)nc3c2)CC1 [Entry 9, N-(4-{3-[5-(4-methylpiperazin-1-yl)-1H-benzimidazol-2-yl]-1H-pyrazol-5-yl}phenyl)-N′-[4-(phenyloxy)phenyl]urea]?
A: IC50 [1]: > 5000 nM; IC50 [2]: < 50 nM; IC50 [3]: < 50 nM; IC50 [4]: > 5000 nM

Q: Which IC50 [1] does the source give for COc1cc(NC(=O)Nc2ccc(-c3cc(-c4nc5ccc(N6CCN(C)CC6)cc5[nH]4)n[nH]3)cc2)cc(OC)c1 [Entry 11, N-[3,5-bis(methyloxy)phenyl]-N′-(4-{3-[6-(4-methylpiperazin-1-yl)-1H-benzimidazol-2-yl]-1H-pyrazol-5-yl}phenyl)urea] here?
A: Its IC50 is over 5000 nM.

Q: And the IC50 [2]?
A: The IC50 was under 50 nM.

Q: What about the IC50 [3] of the same compound?
A: Its IC50 is under 50 nM.

Q: And the IC50 [4]?
A: The IC50 was over 5000 nM.

Q: What does the source list for CN1CCN(c2ccc3[nH]c(-c4cc(-c5ccc(NC(=O)Nc6ccc(OC(F)(F)F)cc6)cc5)[nH]n4)nc3c2)CC1 [Entry 12, N-(4-{3-[5-(4-methylpiperazin-1-yl)-1H-benzimidazol-2-yl]-1H-pyrazol-5-yl}phenyl)-N′-{4-[(trifluoromethyl)oxy]phenyl} urea]?
A: IC50 [1]: > 5000 nM; IC50 [2]: < 50 nM; IC50 [3]: < 50 nM; IC50 [4]: > 5000 nM

Q: For CN1CCN(c2ccc3[nH]c(-c4cc(-c5ccc(NC(=O)Nc6ccc(Cl)c(C(F)(F)F)c6)cc5)[nH]n4)nc3c2)CC1 [Entry 14, N-[4-chloro-3-(trifluoromethyl)phenyl]-N′-(4-{3-[5-(4-methylpiperazin-1-yl)-1H-benzimidazol-2-yl]-1H-pyrazol-5-yl}phenyl)urea], which IC50 [1] is on record?
A: Its IC50 is over 5000 nM.

Q: And the IC50 [2]?
A: Its IC50 is under 50 nM.

Q: And the IC50 [3]?
A: Its IC50 is under 50 nM.

Q: What about the IC50 [4] of the same compound?
A: The IC50 was over 5000 nM.

Q: Which results are given for CN1CCN(c2ccc3[nH]c(-c4cc(-c5ccc(NC(=O)Nc6cccc(C(F)(F)F)c6)cc5)[nH]n4)nc3c2)CC1 [Entry 15, N-(4-{3-[5-(4-methylpiperazin-1-yl)-1H-benzimidazol-2-yl]-1H-pyrazol-5-yl}phenyl)-N′-[3-(trifluoromethyl)phenyl]urea]?
A: IC50 [1]: 500 to 5000 nM; IC50 [2]: < 50 nM; IC50 [3]: < 50 nM; IC50 [4]: > 5000 nM

Q: With CN1CCN(c2ccc(-c3cc(-c4ccc(NC(=O)Nc5ccc(Cl)c(C(F)(F)F)c5)cc4)[nH]n3)cc2)CC1 [Entry 16, N-[4-chloro-3-(trifluoromethyl)phenyl]-N′-(4-{3-[4-(4-methylpiperazin-1-yl)phenyl]-1H-pyrazol-5-yl}phenyl)urea] as the compound, how does the IC50 [1] read?
A: The IC50 was over 5000 nM.

Q: And the IC50 [2]?
A: Its IC50 is under 50 nM.

Q: What about the IC50 [3] of the same compound?
A: The IC50 was under 50 nM.

Q: What about the IC50 [4] of the same compound?
A: The IC50 was over 5000 nM.

Q: What does the source list for CN1CCN(c2ccc3[nH]c(-c4cc(-c5ccc(NC(=O)Nc6ccc(Cl)cc6)cc5)[nH]n4)nc3c2)CC1 [Entry 18, N-(4-chlorophenyl)-N′-(4-{3-[5-(4-methylpiperazin-1-yl)-1H-benzimidazol-2-yl]-1H-pyrazol-5-yl}phenyl)urea]?
A: IC50 [1]: > 5000 nM; IC50 [2]: < 50 nM; IC50 [3]: < 50 nM; IC50 [4]: > 5000 nM

Q: For CN1CCN(c2ccc3[nH]c(-c4cc(-c5ccc(NC(=O)Nc6cc(F)cc(F)c6)cc5)[nH]n4)nc3c2)CC1 [Entry 19, N-(3,5-difluorophenyl)-N′-(4-{3-[5-(4-methylpiperazin-1-yl)-1H-benzimidazol-2-yl]-1H-pyrazol-5-yl}phenyl)urea], which IC50 [1] is on record?
A: The IC50 was over 5000 nM.

Q: What about the IC50 [2] of the same compound?
A: Its IC50 is under 50 nM.

Q: What about the IC50 [3] of the same compound?
A: Its IC50 is under 50 nM.

Q: And the IC50 [4]?
A: Its IC50 is over 5000 nM.

Q: With COc1cccc(NC(=O)Nc2ccc(-c3cc(-c4nc5cc(N6CCN(C)CC6)ccc5[nH]4)n[nH]3)cc2)c1 [Entry 20, N-[3-(methyloxy)phenyl]-N′-(4-{3-[5-(4-methylpiperazin-1-yl)-1H-benzimidazol-2-yl]-1H-pyrazol-5-yl}phenyl)urea] as the compound, how does the IC50 [1] read?
A: The IC50 was over 5000 nM.

Q: And the IC50 [2]?
A: Its IC50 is under 50 nM.

Q: And the IC50 [3]?
A: The IC50 was under 50 nM.

Q: And the IC50 [4]?
A: The IC50 was over 5000 nM.

Q: Which IC50 [1] does the source give for CCN1CCN(c2ccc(-c3cc(-c4ccc(NC(=O)Nc5ccc(Cl)c(C(F)(F)F)c5)cc4)[nH]n3)cc2)CC1 [Entry 21, N-[4-chloro-3-(trifluoromethyl)phenyl]-N′-(4-{3-[4-(4-ethylpiperazin-1-yl)phenyl]-1H-pyrazol-5-yl}phenyl)urea] here?
A: Its IC50 is over 5000 nM.

Q: What about the IC50 [2] of the same compound?
A: The IC50 was under 50 nM.

Q: What about the IC50 [3] of the same compound?
A: Its IC50 is under 50 nM.

Q: And the IC50 [4]?
A: Its IC50 is over 5000 nM.
